Source: patent US20240294541A1, “COMPOUNDS CONSTITUTING C20-MODIFIED SALINOMYCIN DERIVATIVES, A METHOD FOR OBTAINING THE SAME, A COMPOSITION CONTAINING THE SAME AND A USE OF SAID COMPOUNDS” (FILECLO SPOLKA Z OGRANICZONA ODPOWIEDZIALNOSCIA, priority 2021, published 2024)
Several values for one entry are separate records, joined by “and”; a condition that tells them apart may be missing. Equal values may be shown once. Read-outs that look alike come from different tables or passages of the source.

Key:
Type in all cases: cell-based
[1] = test system: NCI-H23 (human lung cancer); assay: In vitro cytotoxicity, SRB assay, NCI-H23; conditions: 72 h with compound, SRB, n/a = non-active compound, read-out: NCI-H23 IC50
[2] = test system: PFSK-1 (malignant primitive neuroectodermal tumour); assay: In vitro cytotoxicity, SRB assay, PFSK-1; conditions: 72 h with compound, SRB, n/a = non-active compound, read-out: PFSK-1 IC50
[3] = test system: A2780 (human ovarian cancer); assay: In vitro cytotoxicity, SRB assay, A2780; conditions: 72 h with compound, SRB, n/a = non-active compound, read-out: A2780 IC50
[4] = test system: A375 (human melanoma); assay: In vitro cytotoxicity, SRB assay, A375; conditions: 72 h with compound, SRB, n/a = non-active compound, read-out: A375 IC50
[5] = test system: Hs294T (human melanoma); assay: cells; conditions: for SI Hs294T: selectivity coefficient vs normal BALB/3T3 fibroblasts
[6] = test system: PLC/PRF/5 (human liver cancer); assay: cells; conditions: for SI PLC/PRF/5: selectivity coefficient vs normal BALB/3T3 fibroblasts
[7] = test system: SNU-16 (human gastric cancer); assay: cells; conditions: for SI SNU-16: selectivity coefficient vs normal BALB/3T3 fibroblasts
[8] = test system: KG-1 (human acute myeloid leukaemia); assay: In vitro cytotoxicity, MTT assay, KG-1; conditions: Homo sapiens; 72 h with compound, MTT; n/a = non-active compound
[9] = test system: MIA PaCa-2 (human pancreatic cancer); assay: cells; conditions: for SI MIA PaCa-2: selectivity coefficient vs normal BALB/3T3 fibroblasts
[10] = test system: NCI-H358 (human lung cancer); assay: cells; conditions: Table 4; for IC50: NCI-H358 human lung cancer cells, read-out: IC50 (nM) NCI-H358; for SI NCI-H358: selectivity coefficient vs normal BALB/3T3 fibroblasts
[11] = test system: A2780Cis (cisplatin-resistant human ovarian cancer); assay: In vitro cytotoxicity, SRB assay, A2780Cis
[12] = test system: BALB/3T3 (normal mouse fibroblasts); assay: In vitro cytotoxicity, SRB assay, normal BALB/3T3 fibroblasts
[13] = test system: MV-4-11 (human biphenotypic leukaemia); assay: In vitro cytotoxicity, MTT assay, MV-4-11
[14] = test system: cancer cells; assay: In vitro cytotoxic activity on the panel of cancer cell lines (MTT/SRB), general statements; conditions: Tables 3.1, 3.2, 4 and 5; parent compound salinomycin
[15] = Hs 294T, Table 4, Hs294T human melanoma cells, read-out: IC50 (nM) Hs294T
[16] = Table 4, PLC/PRF/5 human liver cancer cells, read-out: IC50 (nM) PLC/PRF/5
[17] = Table 4, SNU-16 human gastric cancer cells, read-out: IC50 (nM) SNU-16
[18] = Table 4, MIA PaCa-2 human pancreatic cancer cells, read-out: IC50 (nM) MIA PaCa-2
[19] = Table 4, BALB/3T3 normal mouse fibroblasts, read-out: IC50 (nM) BALB3T3 normal cells
[20] = Homo sapiens, A2780cis, read-out: IC50 (nM) A2780Cis
[21] = Homo sapiens, MV4-11, read-out: IC50 (nM) MV4-11

Structure (SMILES) | IC50 [5, 15] | IC50 [6, 16] | IC50 [7, 17] | IC50 [9, 18] | IC50 [10] | IC50 [12, 19] | anti-proliferative effect compared to that of the parent compound [14] | SI A2780Cis [11] | IC50 [11, 20] | SI Hs294T ([5]; Table 4) | SI PLC/PRF/5 ([6]; Table 4) | SI SNU-16 ([7]; Table 4) | SI MIA PaCa-2 ([9]; Table 4) | SI MV4-11 [13] | IC50 [13, 21] | SI NCI-H358 [10] | also measured
CC[C@@H](C(=O)[C@@H](C)[C@@H](O)[C@H](C)[C@@H]1O[C@@H]([C@@H](CC)C(=O)O)CC[C@@H]1C)[C@H]1O[C@]2(C=C[C@@H](O)[C@]3(CC[C@@](C)([C@H]4CC[C@](O)(CC)[C@H](C)O4)O3)O2)[C@H](C)C[C@@H]1C [FLC-00001 (SAL), Salinomycin] | 2160 nM | 504 nM | 145 nM | 304 nM | 600 nM | – | – | – | – | – | – | – | – | – | – | – | IC50 ([1]; Homo sapiens, NCI-H23): 356 nM; IC50 ([2]; Homo sapiens, PFSK-1): 336 nM; IC50 ([3]; Homo sapiens, A2780): 120 nM; IC50 ([4]; Homo sapiens, A-375): 574 nM; IC50 ([5]; Homo sapiens, Hs 294T, 72 h with compound, SRB, n/a = non-active compound, read-out: Hs294T IC50): 2160 nM; IC50 ([6]; Homo sapiens, PLC-PRF-5, 72 h with compound, SRB, n/a = non-active compound, read-out: PLC/PRF/5 IC50): 504 nM; IC50 ([7]; Homo sapiens, SNU-16, 72 h with compound, MTT, n/a = non-active compound, read-out: SNU-16 IC50): 145 nM; IC50 [8]: 429 nM; IC50 ([9]; Homo sapiens, MIA PaCa-2, 72 h with compound, SRB, n/a = non-active compound, read-out: MIA PaCa-2 IC50): 304 nM
N.N.[Cl][Pt][Cl] [Cisplatin, cisplatin, reference compound] | – | 1580 nM | 2330 nM | 2360 nM | 2550 nM | 1390 nM | – | – | – | – | – | – | – | – | – | – | IC50 [1]: 2320 nM; IC50 [2]: 1510 nM; IC50 [3]: 178 nM; A2780Cis RI [11]: 14.6; IC50 ([11]; read-out: A2780Cis IC50): 2610 nM; IC50 ([11]; read-out: IC50 (nM) A2780Cis): 2610 nM and 2870 nM; IC50 [4]: 410 nM; IC50 ([5]; 72 h with compound, SRB, n/a = non-active compound, read-out: Hs294T IC50): 736 nM; IC50 ([5]; Table 4, Hs294T human melanoma cells, read-out: IC50 (nM) Hs294T): 736 nM; IC50 ([6]; 72 h with compound, SRB, n/a = non-active compound, read-out: PLC/PRF/5 IC50): 1580 nM; IC50 ([7]; 72 h with compound, MTT, n/a = non-active compound, read-out: SNU-16 IC50): 2330 nM; IC50 ([9]; 72 h with compound, SRB, n/a = non-active compound, read-out: MIA PaCa-2 IC50): 2360 nM; IC50 ([12]; Table 5, BALB/3T3 normal mouse fibroblasts, read-out: IC50 (nM) BALB3T3 normal cells): 1390 nM; IC50 ([12]; normal cells, 72 h with compound, SRB, n/a = non-active compound, read-out: BALB/3T3 IC50): 1390 nM; IC50 ([13]; read-out: IC50 (nM) MV4-11): 166 nM
CC[C@@H](C(=O)[C@@H](C)[C@@H](O)[C@H](C)[C@@H]1O[C@@H]([C@@H](CC)C(=O)O)CC[C@@H]1C)[C@H]1O[C@]2(C=C[C@@H](NC(=O)C3CCCCC3)[C@]3(CC[C@@](C)([C@H]4CC[C@](O)(CC)[C@H](C)O4)O3)O2)[C@H](C)C[C@@H]1C [FLC-00464-1•Na] | – | – | – | – | – | – | several times more potent compared to that of the parent compound | – | – | – | – | – | – | – | – | – | –
CC[C@@H](C(=O)[C@@H](C)[C@@H](O)[C@H](C)[C@@H]1O[C@@H]([C@@H](CC)C(=O)O)CC[C@@H]1C)[C@H]1O[C@]2(C=C[C@@H](NC(=S)SC)[C@]3(CC[C@@](C)([C@H]4CC[C@](O)(CC)[C@H](C)O4)O3)O2)[C@H](C)C[C@@H]1C [FLC-00475-1•Na] | – | – | – | – | – | – | several times more potent compared to that of the parent compound | – | – | – | – | – | – | – | – | – | –
CC[C@@H](C(=O)[C@@H](C)[C@@H](O)[C@H](C)[C@@H]1O[C@@H]([C@@H](CC)C(=O)O)CC[C@@H]1C)[C@H]1O[C@]2(C=C[C@@H](NC(=O)c3ccccc3Cl)[C@]3(CC[C@@](C)([C@H]4CC[C@](O)(CC)[C@H](C)O4)O3)O2)[C@H](C)C[C@@H]1C [FLC-00462-1•Na] | 1810 nM | 63.8 nM | 339 nM | 52 nM | 397 nM | 552 nM | – | 24.5 | 22.5 nM | 0.3 | 8.6 | 1.6 | 10.6 | 40.4 | 13.7 nM | 1.39 | –
CC[C@@H](C(=O)[C@@H](C)[C@@H](O)[C@H](C)[C@@H]1O[C@@H]([C@@H](CC)C(=O)O)CC[C@@H]1C)[C@H]1O[C@]2(C=C[C@@H](NC(=O)C(=O)NCC3CC3)[C@]3(CC[C@@](C)([C@H]4CC[C@](O)(CC)[C@H](C)O4)O3)O2)[C@H](C)C[C@@H]1C [FLC-00442-1•Na] | 1710 nM | 53.9 nM | 1120 nM | 102 nM | 340 nM | 754 nM | – | 32.3 | 23.3 nM | 0.4 | 14.0 | 0.7 | 7.4 | 38.9 | 19.4 nM | 2.22 | –
